These results are taken from patent publication US20240300932A1, “N-PHENYLIMINE DERIVATIVE AND PREPARATION METHOD AND USE THEREOF” (Guizhou University, priority 2023, published 2024).

Experiment in all cases: Post-emergence herbicidal activity test (stem and leaf spray, pot culture)
Holding throughout (assay type): in vivo
Conditions in all cases: 3 weeks after spraying

The test system of one test is Trifoliumre pensL. As to the method: (1) Post-Emergence Stem and Leaf Spray Treatment: The weeds were cultivated in a 180 mm×140 mm plastic nutrient pot by a pot-culture method, placed in an enamel tray, and the plastic nutrient pots were filled with surface soil (⅘ of a depth) collected from a farmland and air-dried and sieved, and a soil humidity was controlled at 20% in the initial stage. Weed seeds with plump and uniform grains were selected, soaked in warm water at 25° C. for 6 h, and germinated in a biochemical incubator (dark) at 28° C. The freshly exposed weed seeds were evenly placed on the soil surface, and then covered with 0.5 cm to 1 cm of soil according to the size of the seeds. The weeds are cultivated in a controlled sunlight greenhouse at 20° C. to 30° C., under natural light, and a relative humidity of 57% to 72%. The soil was loam, including 1.63% of organic matters, with a pH value of 7, 84.3 mg/kg of alkaline nitrogen, 38.5 mg/kg of available phosphorus, and 82.1 mg/kg of available potassium. Each treatment was repeated 2 times, each treatment included 12 pots, and 20 weed seeds were sown in each pot. Pesticide was applied in the test for 1 time in total. When the weeds grew to 1.5- to 2-leaf stage, thinning was conducted, with 10 weeds in each pot, and 30 weeds were kept in each treatment. The cultivated weeds were placed on trays with an area of 0.1 m^2, and stems and leaves were sprayed with a sprayer. After applying a pesticide, the pesticide applied weeds were moved into a greenhouse for routine cultivation. 2 weeks after sowing, the test plants were treated at the 2- to 3-leaf stage: the compounds of the present disclosure for testing were dissolved in acetone separately, and added with Tween 80, an emulsifiable oil of 1.5 liters/ha methyl oleate was added as a synergist, and an obtained mixture was diluted with certain water to a certain concentration solution. The solution was sprayed onto the plants using a spray tower. After spraying, the weeds were cultivated in the greenhouse for 3 weeks, and the experimental effects on the weeds were counted. The effective concentrations of the compounds were 10 g/mu, 5 g/mu, and 2.5 g/mu, the experiment was repeated three times, and an average result was taken.

The test system of another test is Setaria viridis. The protocol: (§1) The weeds were cultivated in a 180 mm×140 mm plastic nutrient pot by a pot-culture method, placed in an enamel tray, and the plastic nutrient pots were filled with surface soil (⅘ of a depth) collected from a farmland and air-dried and sieved, and a soil humidity was controlled at 20% in the initial stage. Weed seeds with plump and uniform grains were selected, soaked in warm water at 25° C. for 6 h, and germinated in a biochemical incubator (dark) at 28° C. The freshly exposed weed seeds were evenly placed on the soil surface, and then covered with 0.5 cm to 1 cm of soil according to the size of the seeds. The weeds are cultivated in a controlled sunlight greenhouse at 20° C. to 30° C., under natural light, and a relative humidity of 57% to 72%. The soil was loam, including 1.63% of organic matters, with a pH value of 7, 84.3 mg/kg of alkaline nitrogen, 38.5 mg/kg of available phosphorus, and 82.1 mg/kg of available potassium.
(§2) Each treatment was repeated 2 times, each treatment included 12 pots, and 20 weed seeds were sown in each pot. Pesticide was applied in the test for 1 time in total. When the weeds grew to 1.5- to 2-leaf stage, thinning was conducted, with 10 weeds in each pot, and 30 weeds were kept in each treatment.
(§3) The cultivated weeds were placed on trays with an area of 0.1 m^2, and stems and leaves were sprayed with a sprayer. After applying a pesticide, the pesticide applied weeds were moved into a greenhouse for routine cultivation.
(§4) 2 weeks after sowing, the test plants were treated at the 2- to 3-leaf stage: the compounds of the present disclosure for testing were dissolved in acetone separately, and added with Tween 80, an emulsifiable oil of 1.5 liters/ha methyl oleate was added as a synergist, and an obtained mixture was diluted with certain water to a certain concentration solution. The solution was sprayed onto the plants using a spray tower. After spraying, the weeds were cultivated in the greenhouse for 3 weeks, and the experimental effects on the weeds were counted. The effective concentrations of the compounds were 10 g/mu, 5 g/mu, and 2.5 g/mu, the experiment was repeated three times, and an average result was taken.
(§5) The activity level criteria for plant destruction (i.e. growth control rate) are as follows: • Grade 5: the growth control rate is greater than or equal to 85%; • Grade 4: the growth control rate is greater than or equal to 60% and less than 85%; • Grade 3: the growth control rate is greater than or equal to 40% and less than 60%; • Grade 2: the growth control rate is greater than or equal to 20% and less than 40%; • Grade 1: the growth control rate is greater than or equal to 5% and less than 20%; and • Grade 0: the growth control rate is less than 5%.
(§6) The growth control rate is a fresh weight control rate.

The test system of another test is Amaranthus retroflexus. The protocol: as §1, §2, §3, §4, §5, §6
A further test has as its system Abutilon theophrasti. As to the method: as §1, §2, §3, §4, §5, §6
In a further test the test system is Echinochloa crusgalli. The protocol: as §1, §2, §3, §4, §5, §6
For another test, the system named is Portulaca oleracea. The protocol: as §1, §2, §3, §4, §5, §6

For the compound `O=C1C2=C(CCCC2)C(=O)N1c1cc(OCc2nc(-c3ccccc3C(F)(F)F)no2)c(Cl)cc1F` [Compound A18], the “Post-emergence herbicidal activity, Trifoliumre pensL. (grade)” value in the test on Trifoliumre pensL. (dosage 2.5 g/mu) is 4 (Grade 4: the growth control rate is greater than or equal to 60% and less than 85%); in the test on Trifoliumre pensL. (dosage 5 g/mu) it was 5 (Grade 5: the growth control rate is greater than or equal to 85%); with Trifoliumre pensL. (dosage 10 g/mu), 5 (Grade 5: the growth control rate is greater than or equal to 85%). Also, the “Post-emergence herbicidal activity, S. viridis (grade)” value is 2 (Grade 2: the growth control rate is greater than or equal to 20% and less than 40%) with Setaria viridis (dosage 2.5 g/mu); 3 (Grade 3: the growth control rate is greater than or equal to 40% and less than 60%) in the test with Setaria viridis (dosage 5 g/mu); 4 (Grade 4: the growth control rate is greater than or equal to 60% and less than 85%) with Setaria viridis (dosage 10 g/mu). Also, the “Post-emergence herbicidal activity, A. retroflexus (grade)” value in the test on Amaranthus retroflexus (dosage 2.5 g/mu), in the test with Amaranthus retroflexus (dosage 5 g/mu) and with Amaranthus retroflexus (dosage 10 g/mu) was 5 (Grade 5: the growth control rate is greater than or equal to 85%) in each case. The “Post-emergence herbicidal activity, A. theophrasti (grade)” value with Abutilon theophrasti (dosage 2.5 g/mu), in the test on Abutilon theophrasti (dosage 5 g/mu) and in the test with Abutilon theophrasti (dosage 10 g/mu) was 5 (Grade 5: the growth control rate is greater than or equal to 85%) in each case. Besides, the “Post-emergence herbicidal activity, E. crusgalli (grade)” value with Echinochloa crusgalli (dosage 2.5 g/mu) is 1 (Grade 1: the growth control rate is greater than or equal to 5% and less than 20%); in the test on Echinochloa crusgalli (dosage 5 g/mu), 2 (Grade 2: the growth control rate is greater than or equal to 20% and less than 40%); in the test with Echinochloa crusgalli (dosage 10 g/mu) it was 3 (Grade 3: the growth control rate is greater than or equal to 40% and less than 60%). The “Post-emergence herbicidal activity, P. oleracea (grade)” value in the test on Portulaca oleracea (dosage 2.5 g/mu) is 4 (Grade 4: the growth control rate is greater than or equal to 60% and less than 85%); in the test with Portulaca oleracea (dosage 5 g/mu) it was 5 (Grade 5: the growth control rate is greater than or equal to 85%); with Portulaca oleracea (dosage 10 g/mu) it was 5 (Grade 5: the growth control rate is greater than or equal to 85%).
Take `O=C1C2=C(CCCC2)C(=O)N1c1cc(OCc2nnc(-c3ccccc3Br)o2)c(Cl)cc1F` [Compound B6]: the “Post-emergence herbicidal activity, Trifoliumre pensL. (grade)” value in the test with Trifoliumre pensL. (dosage 2.5 g/mu), in the test with Trifoliumre pensL. (dosage 5 g/mu) and with Trifoliumre pensL. (dosage 10 g/mu) was 5 (Grade 5: the growth control rate is greater than or equal to 85%) each time. Further, the “Post-emergence herbicidal activity, S. viridis (grade)” value with Setaria viridis (dosage 2.5 g/mu) was 2 (Grade 2: the growth control rate is greater than or equal to 20% and less than 40%); in the test on Setaria viridis (dosage 5 g/mu), 3 (Grade 3: the growth control rate is greater than or equal to 40% and less than 60%); with Setaria viridis (dosage 10 g/mu), 4 (Grade 4: the growth control rate is greater than or equal to 60% and less than 85%). Also, the “Post-emergence herbicidal activity, A. retroflexus (grade)” value in the test on Amaranthus retroflexus (dosage 2.5 g/mu), in the test with Amaranthus retroflexus (dosage 5 g/mu) and with Amaranthus retroflexus (dosage 10 g/mu) was 5 (Grade 5: the growth control rate is greater than or equal to 85%) in each case. For the same compound, the “Post-emergence herbicidal activity, A. theophrasti (grade)” value in the test on Abutilon theophrasti (dosage 2.5 g/mu), with Abutilon theophrasti (dosage 5 g/mu) and in the test with Abutilon theophrasti (dosage 10 g/mu) was 5 (Grade 5: the growth control rate is greater than or equal to 85%) throughout. For the same compound, the “Post-emergence herbicidal activity, E. crusgalli (grade)” value in the test with Echinochloa crusgalli (dosage 2.5 g/mu) is 1 (Grade 1: the growth control rate is greater than or equal to 5% and less than 20%); in the test with Echinochloa crusgalli (dosage 5 g/mu) it was 2 (Grade 2: the growth control rate is greater than or equal to 20% and less than 40%); with Echinochloa crusgalli (dosage 10 g/mu) it was 3 (Grade 3: the growth control rate is greater than or equal to 40% and less than 60%). In addition, the “Post-emergence herbicidal activity, P. oleracea (grade)” value with Portulaca oleracea (dosage 2.5 g/mu), in the test on Portulaca oleracea (dosage 5 g/mu) and with Portulaca oleracea (dosage 10 g/mu) was 5 (Grade 5: the growth control rate is greater than or equal to 85%) in each case.
